Test system: RKO colorectal cells
Test: Dose-response compound screen in RKO cells (Western blot, indicators of CKIα inhibition)
Assay type: cell-based
Details: 16 hours at 37° C., 0.167-1.5 μM or 0.11-1 μM, ImageJ, 1 = mock (DMSO)-treated cells
Description: RKO cells were incubated for 16 hours at 37° C. with indicated concentrations of the compounds, or with the vehicle (DMSO) alone (−) and analyzed by Western Blot. Shown are Western Blot signals of β-catenin and p53 stabilization and phosphorylation of H2AX (γH2AX), a marker of DNA damage.
RKO colorectal cells were incubated with serial dilutions of each of the compounds (at a concentration range of 0.167-1.5 μM or 0.11-1 μM in DMSO) for 16 hours at 37° C. Cells were washed with PBS and cell pellets were incubated with ice cold protein lysis buffer containing protease inhibitor cocktail ( 1/200; Calbiochem) and phosphatase inhibitors (20 mM p-nitrophenyl phosphate (PNPP), 20 mM β-glycerophosphate and 300 nM okadaic acid). Western blot (WB) analysis was performed by means of standard techniques. Blots were incubated with antibodies detecting β-catenin ( 1/2,500; BD Transduction), p53 (DO-1&1801 hybridoma mix; dilution of 1:20 of supernatants from each), CKIα (C-19; 1/1,000; Santa Cruz Biotechnology) and phospho-histone H2AX (S139; 1/1,000; Millipore). Secondary antibodies were HRP-linked goat anti-mouse, goat anti-rabbit and rabbit anti-goat antibodies (all 1/10,000; Jackson). Blots were developed using ECL (GE Healthcare). Signal intensities corresponding to β-catenin and p53 stabilization and phosphorylation of H2AX (γH2AX—a marker of DNA damage)-indicators of CKIα inhibition (Elyada et al., Nature […]), were analyzed by the ImageJ software. Relative signal intensities are depicted in Table 1 (see also in FIG. 1), where values of 1 correspond to signals of mock (DMSO)-treated cells.

| SMILES | H2AX phosphorylation (γH2AX, relative signal intensity) | p53 stabilization (relative signal intensity) | β-Catenin stabilization (relative signal intensity) |
| --- | --- | --- | --- |
| Cc1ccnn1[C@H]1CC[C@H](Nc2ncc(Cl)c(-c3cnn(C)c3CC3CC3)n2)CC1 [A102] | 1 | 1 | 4 |
| Cn1ncc(-c2cccc(N[C@H]3CC[C@H](N)CC3)n2)c1CC1CC1 [A105, (1r,4r)-N1-(6-(5-(cyclopropylmethyl)-1-methyl-1H-pyrazol-4-yl)pyridin-2-yl)cyclohexane-1,4-diamine] | 1 | 2 | 5 |
| Cn1ncc(-c2cc(N[C@H]3CC[C@H](N)CC3)nc(N)n2)c1CC1CC1 [A107, N4-((1r,4r)-4-aminocyclohexyl)-6-(5-(cyclopropylmethyl)-1-methyl-1H-pyrazol-4-yl)pyrimidine-2,4-diamine] | 1 | 2 | 4 |
| Cn1ncc(-c2cc(N[C@H]3CC[C@H](N)CC3)ncn2)c1CC1CC1 [A106, (1r,4r)-N1-(6-(5-(cyclopropylmethyl)-1-methyl-1H-pyrazol-4-yl)pyrimidin-4-yl)cyclohexane-1,4-diamine] | 1 | 1 | 9 |
| Cn1ncc(-c2cc(O)nc(N[C@H]3CC[C@H](N)CC3)n2)c1CC1CC1 [A108, 2-(((1r,4r)-4-aminocyclohexyl)amino)-6-(5-(cyclopropylmethyl)-1-methyl-1H-pyrazol-4-yl)pyrimidin-4-ol] | 1 | 1 | 9 |
| Cn1ncc(-c2cc(N[C@H]3CC[C@H](N)CC3)ncc2Cl)c1CC1CC1 [A104, (1r,4r)-N1-(5-chloro-4-(5-(cyclopropylmethyl)-1-methyl-1H-pyrazol-4-yl)pyridin-2-yl)cyclohexane-1,4-diamine] | 20 | 20 | 9 |

— patent US11072599B2, “Pyrazole compounds and uses thereof” (Yissum Research Development Company of the Hebrew …, priority 2017, dated 2021)
